Laboratory results reported in patent publication US9113629B2, “4-amino-6-(4-substituted-phenyl)-picolinates and 6-amino-2-(4-substituted-phenyl)-pyrimidine-4-carboxylates and their use as herbicides” (DOW AGROSCIENCES LLC, priority 2013, dated 2015).
Read-outs that look alike come from different tables or passages of the source.

Experiments:
[1] = tested on: TRZSS: wheat, including spring and winter (Triticum aestivum); assay: Post-emergent Test III, herbicidal activity in wheat and barley; type: in vivo; conditions: for pest or weed control at 35 g/ha / pest or weed control at 70 g/ha: Triticum aestivum, post-emergence, 504 h; for pest or weed control at 35 g/ha: 35 g ai/ha; for pest or weed control at 70 g/ha: 70 g ai/ha; for GR20 TRZSS: probit analysis
Procedure: (§1) Post-emergent Test III. Seeds of the desired test plant species were planted in Sun Gro MetroMix® 306 planting mixture, which typically has a pH of 6.0 to 6.8 and an organic matter content of about 30 percent, in plastic pots with a surface area of 103.2 square centimeters (cm^2). When required to ensure good germination and healthy plants, a fungicide treatment and/or other chemical or physical treatment was applied. The plants were grown for 7-36 days (d) in a greenhouse with an approximate 14 hour (h) photoperiod which was maintained at about 18° C. during the day and 17° C. during the night. Nutrients and water were added on a regular basis and supplemental lighting was provided with overhead metal halide 1000-Watt lamps as necessary. The plants were employed for testing when they reached the second or third true leaf stage.
(§2) A weighed amount, determined by the highest rate to be tested, of each test compound was placed in a 25 mL glass vial and was dissolved in 4 mL of a 97:3 v/v mixture of acetone and DMSO to obtain concentrated stock solutions. […] The concentrated stock solutions obtained were diluted with 20 mL of an aqueous mixture containing acetone, water, isopropyl alcohol, DMSO, Agri-Dex crop oil concentrate, and X-77 surfactant in a 48:39:10:1.5:1.5:0.02 v/v ratio to obtain spray solutions containing the highest application rates. Additional application rates were obtained by serial dilution of 12 mL of the high rate solution into a solution containing 2 mL of 97:3 v/v mixture of acetone and DMSO and 10 mL of an aqueous mixture containing acetone, water, isopropyl alcohol, DMSO, Agri-Dex crop oil concentrate, and X-77 surfactant in a 48:39:10:1.5:1.5:0.02 v/v ratio to obtain ½×, ¼×, ⅛× and 1/16× rates of the high rate. Compound requirements are based upon a 12 mL application volume at a rate of 187 liters per hectare (L/ha). Formulated compounds were applied to the plant material with an overhead Mandel track sprayer equipped with 8002E nozzles calibrated to deliver 187 L/ha over an application area of 0.503 square meters at a spray height of 18 inches (43 cm) above the average plant canopy height. Control plants were sprayed in the same manner with the solvent blank.
(§3) The treated plants and control plants were placed in a greenhouse as described above and watered by subirrigation to prevent wash-off of the test compounds. After 21 d, the condition of the test plants as compared with that of the untreated plants was determined visually and scored on a scale of 0 to 100 percent where 0 corresponds to no injury and 100 corresponds to complete kill.
(§4) By applying the well-accepted probit analysis as described by J. Berkson in Journal of the American Statistical Society, 48, 565 (1953) and by D. Finney in “Probit Analysis” Cambridge University Press (1952), herbicidal injury of a specific compound at various rates can be used to calculate GR20, GR50, GR80 and GR90 values, which are defined as growth reduction factors that correspond to the effective dose of herbicide required to provide plant growth reduction (GR) of 20 percent, 50 percent, 80 percent and 90 percent, respectively. Probit analysis was applied to data collected from multiple dose rates of individual compounds utilizing the procedures explained in the following examples. The analysis of those dose rates is captured in the following tables.

[2] = tested on: KCHSC: kochia (Kochia scoparia); assay: as above; type: in vivo; conditions: for pest or weed control at 35 g/ha / pest or weed control at 70 g/ha: Bassia scoparia, post-emergence, 504 h; for pest or weed control at 35 g/ha: 35 g ai/ha; for pest or weed control at 70 g/ha: 70 g ai/ha; for GR50 KCHSC / GR80 KCHSC: probit analysis; for GR50 KCHSC: dose for 50 percent growth reduction; for GR80 KCHSC: dose for 80 percent growth reduction
Procedure: as §1, §2, §3, §4

[3] = tested on: MATSS: scented mayweed (Matricaria chamomilla), pineappleweed (Matricaria matricarioides); assay: as above; type: in vivo; conditions: for pest or weed control at 35 g/ha / pest or weed control at 70 g/ha: Matricaria chamomilla, post-emergence, 504 h; for pest or weed control at 35 g/ha: 35 g ai/ha; for pest or weed control at 70 g/ha: 70 g ai/ha; for GR50 MATSS / GR80 MATSS: probit analysis; for GR50 MATSS: dose for 50 percent growth reduction; for GR80 MATSS: dose for 80 percent growth reduction
Procedure: as §1, §2, §3, §4

[4] = tested on: HORSS: barley, including spring and winter (Hordeum vulgare); assay: as above; type: in vivo; conditions: for pest or weed control at 35 g/ha / pest or weed control at 70 g/ha: Hordeum vulgare, post-emergence, 504 h; for pest or weed control at 35 g/ha: 35 g ai/ha; for pest or weed control at 70 g/ha: 70 g ai/ha; for GR20 HORSS: probit analysis
Procedure: as §1, §2, §3, §4

[5] = 21 days after application, read-out: Visual Gorowth Reduction (%) 21 days After Application TRZSS
[6] = dose for 20 percent growth reduction (crop), 21 days after application
[7] = 21 days after application, read-out: Visual Gorowth Reduction (%) 21 days After Application KCHSC
[8] = 21 days after application, read-out: Visual Gorowth Reduction (%) 21 days After Application MATSS
[9] = 21 days after application, read-out: Visual Gorowth Reduction (%) 21 days After Application HORSS
[10] = Table 8, dose for 20 percent growth reduction, 21 d
[11] = Table 8, post-emergent, 21 d, read-out: Visual Growth Reduction (%) 21 Days After Application TRZSS
[12] = Table 8, post-emergent, 21 d, read-out: Visual Growth Reduction (%) 21 Days After Application KCHSC
[13] = Table 8, post-emergent, 21 d, read-out: Visual Growth Reduction (%) 21 Days After Application MATSS
[14] = Table 8, post-emergent, 21 d, read-out: Visual Growth Reduction (%) 21 Days After Application HORSS

In the case of Nc1c(F)c(-c2cc(F)c(I)cc2F)nc(C(=O)O)c1Cl [Compound 69], the pest or weed control at 35 g/ha [1, 5] is reported as 85 to 94%, the pest or weed control at 70 g/ha [1, 5] is reported as 85 to 94% and the “GR20 TRZSS” value [1, 6] is reported as 1 g ai/ha. For the same molecule, the pest or weed control at 35 g/ha [2, 7] was 85 to 94%, the pest or weed control at 70 g/ha [2, 7] was 85 to 94% and the “GR50 KCHSC” value ([2]; 21 days after application) was 5 g ai/ha. For the same molecule, the “GR80 KCHSC” value ([2]; 21 days after application) was 19 g ai/ha, the pest or weed control at 35 g/ha [3, 8] was 75 to 84% and the pest or weed control at 70 g/ha [3, 8] was 85 to 94%. The “GR50 MATSS” value ([3]; 21 days after application) was 5 g ai/ha, the “GR80 MATSS” value ([3]; 21 days after application) was 29 g ai/ha and the pest or weed control at 35 g/ha [4, 9] was 85 to 94%. For the same molecule, the pest or weed control at 70 g/ha [4, 9] was 95 to 100%, the “GR20 HORSS” value [4, 6] was 1 g ai/ha and the melting point was 159 to 161 °C.

With COC(=O)c1nc(-c2ccc(I)c(F)c2)c(C)c(N)c1Cl [Compound 79, Methyl 4-amino-3-chloro-6-(3-fluoro-4-iodophenyl)-5-methylpicolinate] the “GR20 TRZSS” value [1, 10] was 2 g ai/ha, the pest or weed control at 35 g/ha [1, 11] was 75 to 84% and the pest or weed control at 70 g/ha [1, 11] was 85 to 94%. The pest or weed control at 35 g/ha [2, 12] was 60 to 74%, the pest or weed control at 70 g/ha [2, 12] was 75 to 84% and the “GR50 KCHSC” value ([2]; Table 8, 21 d) was 24 g ai/ha. The “GR80 KCHSC” value ([2]; Table 8, 21 d) was 70 g ai/ha, the pest or weed control at 35 g/ha [3, 13] was 75 to 84% and the pest or weed control at 70 g/ha [3, 13] was 85 to 94%. The “GR50 MATSS” value ([3]; Table 8, 21 d) was 13 g ai/ha, the “GR80 MATSS” value ([3]; Table 8, 21 d) was 46 g ai/ha and the pest or weed control at 35 g/ha [4, 14] was 85 to 94%. The pest or weed control at 70 g/ha [4, 14] was 85 to 94%, the “GR20 HORSS” value [4, 10] was 1 g ai/ha and the melting point was 121 to 124 °C.

For C=Cc1c(C(=O)O)nc(-c2ccc(C(F)(F)F)c(F)c2)c(F)c1N [Compound 86], the pest or weed control at 35 g/ha [1, 5] was 60 to 74%, the pest or weed control at 70 g/ha [1, 5] was 60 to 74% and the “GR20 TRZSS” value [1, 6] was 1 g ai/ha. The pest or weed control at 35 g/ha [2, 7] was 75 to 84%, the pest or weed control at 70 g/ha [2, 7] was 75 to 84% and the “GR50 KCHSC” value ([2]; 21 days after application) was 12 g ai/ha. For the same molecule, the “GR80 KCHSC” value ([2]; 21 days after application) was 55 g ai/ha, the pest or weed control at 35 g/ha [3, 8] was 60 to 74% and the pest or weed control at 70 g/ha [3, 8] was 60 to 74%. The “GR50 MATSS” value ([3]; 21 days after application) was 22 g ai/ha, the “GR80 MATSS” value ([3]; 21 days after application) was 85 g ai/ha and the pest or weed control at 35 g/ha [4, 9] was 30 to 44%. For the same molecule, the pest or weed control at 70 g/ha [4, 9] was 30 to 44%, the “GR20 HORSS” value [4, 6] was 14 g ai/ha and the melting point was 120 to 122 °C.

For Nc1cc(-c2ccc(I)cc2F)nc(C(=O)O)c1Cl [Compound 124], the “GR20 TRZSS” value [1, 10] was 1 g ai/ha, the pest or weed control at 35 g/ha [1, 11] was 85 to 94% and the pest or weed control at 70 g/ha [1, 11] was 85 to 94%. For the same molecule, the pest or weed control at 35 g/ha [2, 12] was 85 to 94%, the pest or weed control at 70 g/ha [2, 12] was 85 to 94% and the “GR50 KCHSC” value ([2]; Table 8, 21 d) was 3 g ai/ha. For the same molecule, the “GR80 KCHSC” value ([2]; Table 8, 21 d) was 29 g ai/ha, the pest or weed control at 35 g/ha [3, 13] was 75 to 84% and the pest or weed control at 70 g/ha [3, 13] was 85 to 94%. The “GR80 MATSS” value ([3]; Table 8, 21 d) was 32 g ai/ha, the pest or weed control at 35 g/ha [4, 14] was 85 to 94% and the pest or weed control at 70 g/ha [4, 14] was 95 to 100%. For the same molecule, the “GR20 HORSS” value [4, 10] was 1 g ai/ha and the melting point was 208.4 to 210.2 °C.
